Source: the NIST ThermoML archive (doi:10.1016/j.fluid.2014.11.020)
± gives the expanded uncertainty stated by the source.

Assay: activity coefficient (dimensionless); of the first substance listed, at infinite dilution; xn = mol fraction of the nth substance listed
Details: Liquid, Chromatography, x1 = 0

| Structure (SMILES) | activity coefficient (323.15 K) | activity coefficient (333.15 K) | activity coefficient (343.15 K) |
| --- | --- | --- | --- |
| Cc1ccc(C)cc1 [1,4-dimethylbenzene] + CN(C)c1cc[n+](COCCCOC[n+]2ccc(N(C)C)cc2)cc1.O=S(=O)([N-]S(=O)(=O)C(F)(F)F)C(F)(F)F.O=S(=O)([N-]S(=O)(=O)C(F)(F)F)C(F)(F)F | 1.34 ± 0.09 | 1.36 ± 0.09 | 1.37 ± 0.09 |
| Cc1ccc(C)cc1 [1,4-dimethylbenzene] + Cn1cc[n+](COCCCOC[n+]2ccn(C)c2)c1.N#C[N-]C#N.N#C[N-]C#N | 10.5 ± 0.72 | 10.2 ± 0.69 | 9.96 ± 0.68 |
| Cc1ccc(C)cc1 [1,4-dimethylbenzene] + Cn1cc[n+](COCCCOC[n+]2ccn(C)c2)c1.O=S(=O)([N-]S(=O)(=O)C(F)(F)F)C(F)(F)F.O=S(=O)([N-]S(=O)(=O)C(F)(F)F)C(F)(F)F | 2.39 ± 0.16 | 2.41 ± 0.16 | 2.34 ± 0.16 |
| Cc1ccc(C)cc1 [1,4-dimethylbenzene] + N#C[N-]C#N.N#C[N-]C#N.c1ccc(Cn2cc[n+](COCCCOC[n+]3ccn(Cc4ccccc4)c3)c2)cc1 | 8.84 ± 0.6 | 8.42 ± 0.57 | 8.16 ± 0.56 |
| C1COCCO1 [1,4-dioxane] + CCCCCCCCn1cc[n+](COCCC)c1C.N#C[N-]C#N | 0.77 ± 0.05 | 0.78 ± 0.05 | 0.78 ± 0.05 |
| C1COCCO1 [1,4-dioxane] + CCCCCCCCn1cc[n+](COCCC)c1C.O=S(=O)([N-]S(=O)(=O)C(F)(F)F)C(F)(F)F | 0.5 ± 0.04 | 0.49 ± 0.04 | 0.49 ± 0.04 |
| C1COCCO1 [1,4-dioxane] + CCCCCCCCn1cc[n+](COCCCOC[n+]2ccn(CCCCCCCC)c2C)c1C.N#C[N-]C#N.N#C[N-]C#N | 0.55 ± 0.04 | 0.55 ± 0.04 | 0.55 ± 0.04 |
| C1COCCO1 [1,4-dioxane] + CCCCCCCCn1cc[n+](COCCCOC[n+]2ccn(CCCCCCCC)c2C)c1C.O=S(=O)([N-]S(=O)(=O)C(F)(F)F)C(F)(F)F.O=S(=O)([N-]S(=O)(=O)C(F)(F)F)C(F)(F)F | 0.28 ± 0.03 | 0.27 ± 0.03 | 0.28 ± 0.03 |
| C1COCCO1 [1,4-dioxane] + CCCOC[n+]1ccc(N(C)C)cc1.O=S(=O)([N-]S(=O)(=O)C(F)(F)F)C(F)(F)F | 0.56 ± 0.04 | 0.59 ± 0.04 | 0.59 ± 0.04 |
| C1COCCO1 [1,4-dioxane] + CCCOC[n+]1ccn(C)c1.F[B-](F)(F)F | 1.39 ± 0.09 | 1.42 ± 0.09 | 1.46 ± 0.1 |
| C1COCCO1 [1,4-dioxane] + CCCOC[n+]1ccn(C)c1.N#C[N-]C#N | 1.06 ± 0.07 | 1.09 ± 0.07 | 1.12 ± 0.07 |
| C1COCCO1 [1,4-dioxane] + CCCOC[n+]1ccn(C)c1.O=S(=O)([N-]S(=O)(=O)C(F)(F)F)C(F)(F)F | 0.57 ± 0.04 | 0.57 ± 0.04 | 0.58 ± 0.04 |
| C1COCCO1 [1,4-dioxane] + CCCOC[n+]1ccn(Cc2ccccc2)c1.F[B-](F)(F)F | 0.95 ± 0.06 | 0.95 ± 0.06 | 0.96 ± 0.06 |
| C1COCCO1 [1,4-dioxane] + CCCOC[n+]1ccn(Cc2ccccc2)c1.N#C[N-]C#N | 0.84 ± 0.05 | 0.88 ± 0.06 | 0.89 ± 0.06 |
| C1COCCO1 [1,4-dioxane] + CCCOC[n+]1ccn(Cc2ccccc2)c1.O=S(=O)([N-]S(=O)(=O)C(F)(F)F)C(F)(F)F | 0.4 ± 0.03 | 0.36 ± 0.03 | 0.35 ± 0.03 |
| C1COCCO1 [1,4-dioxane] + CN(C)c1cc[n+](COCCCOC[n+]2ccc(N(C)C)cc2)cc1.O=S(=O)([N-]S(=O)(=O)C(F)(F)F)C(F)(F)F.O=S(=O)([N-]S(=O)(=O)C(F)(F)F)C(F)(F)F | 0.44 ± 0.04 | 0.45 ± 0.04 | 0.45 ± 0.04 |

| Structure (SMILES) | activity coefficient (323.15 K) | activity coefficient (333.15 K) | activity coefficient (343.15 K) |
| --- | --- | --- | --- |
| C1COCCO1 [1,4-dioxane] + Cn1cc[n+](COCCCOC[n+]2ccn(C)c2)c1.N#C[N-]C#N.N#C[N-]C#N | 1.09 ± 0.07 | 1.11 ± 0.07 | 1.13 ± 0.07 |
| C1COCCO1 [1,4-dioxane] + Cn1cc[n+](COCCCOC[n+]2ccn(C)c2)c1.O=S(=O)([N-]S(=O)(=O)C(F)(F)F)C(F)(F)F.O=S(=O)([N-]S(=O)(=O)C(F)(F)F)C(F)(F)F | 0.37 ± 0.03 | 0.39 ± 0.03 | 0.39 ± 0.03 |
| C1COCCO1 [1,4-dioxane] + N#C[N-]C#N.N#C[N-]C#N.c1ccc(Cn2cc[n+](COCCCOC[n+]3ccn(Cc4ccccc4)c3)c2)cc1 | 1.32 ± 0.09 | 1.32 ± 0.09 | 1.35 ± 0.09 |
| C#CCCCCC [1-heptyne] + CCCCCCCCn1cc[n+](COCCC)c1C.N#C[N-]C#N | 2.11 ± 0.14 | 2.09 ± 0.14 | – |
| C#CCCCCC [1-heptyne] + CCCCCCCCn1cc[n+](COCCC)c1C.O=S(=O)([N-]S(=O)(=O)C(F)(F)F)C(F)(F)F | 1.68 ± 0.11 | 1.64 ± 0.11 | 1.62 ± 0.11 |
| C#CCCCCC [1-heptyne] + CCCCCCCCn1cc[n+](COCCCOC[n+]2ccn(CCCCCCCC)c2C)c1C.N#C[N-]C#N.N#C[N-]C#N | 2.1 ± 0.14 | 2.12 ± 0.14 | 2.15 ± 0.15 |
| C#CCCCCC [1-heptyne] + CCCCCCCCn1cc[n+](COCCCOC[n+]2ccn(CCCCCCCC)c2C)c1C.O=S(=O)([N-]S(=O)(=O)C(F)(F)F)C(F)(F)F.O=S(=O)([N-]S(=O)(=O)C(F)(F)F)C(F)(F)F | 1.4 ± 0.09 | 1.4 ± 0.09 | 1.41 ± 0.09 |
| C#CCCCCC [1-heptyne] + CCCOC[n+]1ccc(N(C)C)cc1.O=S(=O)([N-]S(=O)(=O)C(F)(F)F)C(F)(F)F | 3.33 ± 0.23 | 3.35 ± 0.23 | 3.34 ± 0.23 |
| C#CCCCCC [1-heptyne] + CCCOC[n+]1ccn(C)c1.F[B-](F)(F)F | 16.6 ± 1.1 | 16.7 ± 1.1 | 16.7 ± 1.1 |
| C#CCCCCC [1-heptyne] + CCCOC[n+]1ccn(C)c1.N#C[N-]C#N | 10.9 ± 0.74 | 10.9 ± 0.74 | 10.7 ± 0.73 |
| C#CCCCCC [1-heptyne] + CCCOC[n+]1ccn(Cc2ccccc2)c1.F[B-](F)(F)F | 8.53 ± 0.58 | 8.35 ± 0.57 | 8.28 ± 0.56 |
| C#CCCCCC [1-heptyne] + CCCOC[n+]1ccn(Cc2ccccc2)c1.N#C[N-]C#N | 6.34 ± 0.43 | 6.08 ± 0.41 | – |
| C#CCCCCC [1-heptyne] + CCCOC[n+]1ccn(Cc2ccccc2)c1.O=S(=O)([N-]S(=O)(=O)C(F)(F)F)C(F)(F)F | 2.82 ± 0.19 | 2.42 ± 0.16 | 2.25 ± 0.15 |
| C#CCCCCC [1-heptyne] + CN(C)c1cc[n+](COCCCOC[n+]2ccc(N(C)C)cc2)cc1.O=S(=O)([N-]S(=O)(=O)C(F)(F)F)C(F)(F)F.O=S(=O)([N-]S(=O)(=O)C(F)(F)F)C(F)(F)F | 4.2 ± 0.29 | 4.09 ± 0.28 | 4.01 ± 0.27 |
| C#CCCCCC [1-heptyne] + Cn1cc[n+](COCCCOC[n+]2ccn(C)c2)c1.N#C[N-]C#N.N#C[N-]C#N | 27.6 ± 1.9 | 26.2 ± 1.8 | 26.1 ± 1.8 |
